Assays:
Assay type in all cases: in vivo
[1] = system: increase in capillary permeability caused by septide (agonist of substance P); assay: Inhibition of the increase in capillary permeability caused by septide (Saria et al., adapted for the guinea-pig); details: Cavia porcellus
From the text: Study of certain isoindole derivatives of the general formula (IV) by the technique of A. Saria et al., Arch.

[2] = system: bronchospasm induced by [Pro^9 ] substance P; assay: Inhibition of bronchospasm induced by [Pro9] substance P (Konzett and Rossler); details: Cavia porcellus, iv; guinea-pig; bronchospasm induced by 3 μg/kg i.v. of [Pro9] substance P; read-out: ED50, dose which reduces by 50% the bronchospasm
From the text: Injection of substance P causes a bronchospasm in the animal. The bronchoconstriction induced in vivo in the guinea-pig by injection of substance P or of a selective agonist of substance P: [Pro^9 ] substance P is studied by the technique of H. Konzett and R. Rosseler, Archiv. Exp. Path. Pharmak., 195, 71-74 (1940). This bronchoconstriction is inhibited by injection of a product of the general formula (IV), which is evidence of an antiasthmatic activity. The ED50, the dose which reduces by 50 % the bronospasm induced by 3 μg/kg i.v. of [Pro^9 ] substance P, is determined. In this technique, the ED50 of the product of Use Example 1 is 0.7 mg/kg i.v.

[3] = system: hypotension induced by substance P; assay: Antagonism of hypotension induced by substance P (Maggi et al.); details: Cavia porcellus, iv; guinea-pig; hypotension induced by i.v. injection of 250 ng/kg of substance P; read-out: ED50, dose which reduces by 50% the hypotension
Procedure: Injection of substance P into the animal causes hypotension. The products studied by the technique of C. A. Maggi et al., J. Auton. Pharmac., 7, 11-32 (1987) show an antagonistic effect with respect to this hypotension in the guinea-pig. The ED50, the dose which reduces by 50% the hypotension induced by an i.v. injection of 250 ng/kg of substance P, is determined.

Q: Which results are given for `COc1ccccc1[C@H](C)C(=O)N1C[C@@H]2[C@H](C1)C(c1ccccc1)(c1ccccc1)CC[C@@]2(O)c1ccccc1OC` [Use Example 1, (3aS,4S,7aS)-7,7-diphenyl-4-(2-methoxyphenyl)-2-[2-(2-methoxyphenyl)-(S)-propionyl]-perhydroisoindol-4-ol]?
A: ED50 ([1]; iv): 0.04 mg/kg; ED50 ([1]; po): 3.5 mg/kg; ED50 [2]: 0.7 mg/kg; ED50 [3]: 0.15 mg/kg
